Test results as given in publication PMC6270837, “Preparation and Biological Properties of Ring-Substituted Naphthalene-1-Carboxanilides” (Molecules, 2014).

Assay: Lipophilicity determination by RP-HPLC (capacity factor, log k)
Assay type: physicochemical
Settings: end-capped C18, isocratic MeOH 60%/H2O 40%
Procedure: Lipophilicity is a property that has a major effect on bioavailability, biotransformation as well as pharmacological activity, because drugs cross biological membranes through passive transport, which strongly depends on their lipophilicity. Lipophilicity of the studied compounds was determined by RP‑HPLC as capacity factor logarithm (log k). The procedure was performed under isocratic conditions with methanol as an organic modifier in the mobile phase using an end-capped non-polar C18 stationary RP column. The results of ring-substituted naphthalene-1-carboxanilides 1–8c are shown in Table 1 and illustrated in Figure 1. […] Lipophilicity was also calculated as log P using ACD/Percepta ver. 2012 (Advanced Chemistry Development, Inc., Toronto, ON, Canada).
A HPLC system Agilent 1200 equipped with DAD detector (Agilent, USA) was used. A chromatographic column Symmetry® C18 5 μm, 4.6 × 250 mm, Part No. WAT054275 (Waters Corp., Milford, MA, USA) was used. The HPLC separation process was monitored and evaluated by EZChrom Elite software ver. 3.3.2 (Agilent, USA). Isocratic elution by a mixture of MeOH p.a. (60%) and H2O-HPLC Mili-Q grade (40%) as a mobile phase was used. The total flow of the column was 1.0 mL/min, injection 20 μL, column temperature 40 °C, and sample temperature 10 °C. The detection wavelength 210 nm was chosen. The KI methanolic solution was used for the dead time (tD) determination. Retention times (tR) were measured in minutes. The capacity factors k were calculated according to formula k = (tR − tD)/tD, where tR is the retention time of the solute, whereas tD denotes the dead time obtained using an unretained analyte. Log k, calculated from the capacity factor k, is used as the lipophilicity index converted to log P scale.

## Cc1ccc(NC(=O)c2cccc3ccccc23)cc1 [Compound 3c, N-(4-Methylphenyl)naphthalene-1-carboxamide]
  log k: 0.7551
